PubChem BioAssay AID1845217 (Molecular Pharmacology Branch, DTP, NCI, 2023)

System: VA-ES-BJ tumor spheroid viability
Test: Anticancer human tumor VA-ES-BJ cell line growth inhibition;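 further: spheroids exposed to compounds for seven days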;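 on viability, T/C: percent of DMSO vehicle control viability so 100% = untreated growth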
Conditions: spheroids with HUVEC and MSC; for IC50: curve of first compound; for viability, T/C: stronger effect = lower value
Procedure, shortened: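 Complex spheroids of malignant cells with endothelial cells and mesenchymal stem cells; agents alone or combined, from near clinical Cmax (or 10 microM if unknown) down in half-log steps, 0.25% DMSO final.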

COc1ccc([C@@H](O)c2cc(-c3ncnc4cc(N5CCOCC5)ccc34)c(F)cc2Cl)nn1 + CC[C@@]1(O)C(=O)OCc2c1cc1n(c2=O)Cc2cc3c(CN(C)C)c(O)ccc3nc2-1
IC50 (second compound 0.003 µM): 949 nM | IC50 (second compound 0.00949 µM): 612 nM | IC50 (second compound 0.03 µM): 78.7 nM | IC50 (second compound 0.0949 µM): < 31.6 nM | IC50 (second compound 0.3 µM): < 31.6 nM | viability, T/C (second compound 0.003 µM, first compound 0.0316 µM): 94.8% | viability, T/C (second compound 0.003 µM, first compound 0.1 µM): 93.4% | viability, T/C (second compound 0.003 µM, first compound 0.316 µM): 71% | viability, T/C (second compound 0.003 µM, first compound 1 µM): 52.6% | viability, T/C (second compound 0.003 µM, first compound 3.16 µM): 19.9% | viability, T/C (second compound 0.003 µM, first compound 10 µM): 9.59% | viability, T/C (second compound 0.00949 µM, first compound 0.0316 µM): 89.4% | viability, T/C (second compound 0.00949 µM, first compound 0.1 µM): 77.2% | viability, T/C (second compound 0.00949 µM, first compound 0.316 µM): 65.4% | viability, T/C (second compound 0.00949 µM, first compound 1 µM): 40.6% | viability, T/C (second compound 0.00949 µM, first compound 3.16 µM): 15.8% | viability, T/C (second compound 0.00949 µM, first compound 10 µM): 8.03% | viability, T/C (second compound 0.03 µM, first compound 0.0316 µM): 51.3% | viability, T/C (second compound 0.03 µM, first compound 0.1 µM): 50.9% | viability, T/C (second compound 0.03 µM, first compound 0.316 µM): 40.5% | viability, T/C (second compound 0.03 µM, first compound 1 µM): 26.2% | viability, T/C (second compound 0.03 µM, first compound 3.16 µM): 13.8% | viability, T/C (second compound 0.03 µM, first compound 10 µM): 7.2% | viability, T/C (second compound 0.0949 µM, first compound 0.0316 µM): 8.47% | viability, T/C (second compound 0.0949 µM, first compound 0.1 µM): 9.28% | viability, T/C (second compound 0.0949 µM, first compound 0.316 µM): 9.08% | viability, T/C (second compound 0.0949 µM, first compound 1 µM): 8.66% | viability, T/C (second compound 0.0949 µM, first compound 3.16 µM): 7.19% | viability, T/C (second compound 0.0949 µM, first compound 10 µM): 6.29% | viability, T/C (second compound 0.3 µM, first compound 0.0316 µM): 6.47% | viability, T/C (second compound 0.3 µM, first compound 0.1 µM): 6.18% | viability, T/C (second compound 0.3 µM, first compound 0.316 µM): 7.16% | viability, T/C (second compound 0.3 µM, first compound 1 µM): 7.21% | viability, T/C (second compound 0.3 µM, first compound 3.16 µM): 6.83% | viability, T/C (second compound 0.3 µM, first compound 10 µM): 6.76%

O=C(c1cc(Cc2n[nH]c(=O)c3ccccc23)ccc1F)N1CCN(C(=O)C2CC2)CC1 + Cn1nnc2c(C(N)=O)ncn2c1=O
IC50 (second compound 1 µM): > 30000 nM | IC50 (second compound 3.16 µM): 25400 nM | IC50 (second compound 10 µM): 9760 nM | IC50 (second compound 31.6 µM): 3430 nM | IC50 (second compound 100 µM): 669 nM | viability, T/C (second compound 1 µM, first compound 0.0949 µM): 114% | viability, T/C (second compound 1 µM, first compound 0.3 µM): 110% | viability, T/C (second compound 1 µM, first compound 0.949 µM): 111% | viability, T/C (second compound 1 µM, first compound 3 µM): 110% | viability, T/C (second compound 1 µM, first compound 9.49 µM): 75% | viability, T/C (second compound 1 µM, first compound 30 µM): 58.5% | viability, T/C (second compound 3.16 µM, first compound 0.0949 µM): 103% | viability, T/C (second compound 3.16 µM, first compound 0.3 µM): 110% | viability, T/C (second compound 3.16 µM, first compound 0.949 µM): 96.8% | viability, T/C (second compound 3.16 µM, first compound 3 µM): 106% | viability, T/C (second compound 3.16 µM, first compound 9.49 µM): 78.8% | viability, T/C (second compound 3.16 µM, first compound 30 µM): 45.2% | viability, T/C (second compound 10 µM, first compound 0.0949 µM): 110% | viability, T/C (second compound 10 µM, first compound 0.3 µM): 113% | viability, T/C (second compound 10 µM, first compound 0.949 µM): 111% | viability, T/C (second compound 10 µM, first compound 3 µM): 87.4% | viability, T/C (second compound 10 µM, first compound 9.49 µM): 51.9% | viability, T/C (second compound 10 µM, first compound 30 µM): 17% | viability, T/C (second compound 31.6 µM, first compound 0.0949 µM): 102% | viability, T/C (second compound 31.6 µM, first compound 0.3 µM): 112% | viability, T/C (second compound 31.6 µM, first compound 0.949 µM): 100% | viability, T/C (second compound 31.6 µM, first compound 3 µM): 54% | viability, T/C (second compound 31.6 µM, first compound 9.49 µM): 16.8% | viability, T/C (second compound 31.6 µM, first compound 30 µM): 8.16% | viability, T/C (second compound 100 µM, first compound 0.0949 µM): 77% | viability, T/C (second compound 100 µM, first compound 0.3 µM): 72% | viability, T/C (second compound 100 µM, first compound 0.949 µM): 40% | viability, T/C (second compound 100 µM, first compound 3 µM): 15.7% | viability, T/C (second compound 100 µM, first compound 9.49 µM): 7.74% | viability, T/C (second compound 100 µM, first compound 30 µM): 6.29%
